Measured values: patent US10370402B2, “Process for the preparation of fluticasone propionate form 1” (Pfizer Limited, priority 2011, dated 2019)

Legend:
[1] = Particle size distribution of recrystallised fluticasone propionate by laser diffraction (Malvern Mastersizer 2000); format: physicochemical; conditions: for D[v, 0.1]: 10th percentile volume diameter; for D[v, 0.1] / D[v, 0.5] / D[v, 0.9]: recrystallised batch, before micronisation; for D[v, 0.5]: 50th percentile (median) volume diameter; for D[v, 0.9]: 90th percentile volume diameter; for Ingoing particle size D[v, 0.5]: before micronisation (Table 3)
Experimental: The particle size distribution was measured on the Malvern Mastersizer 2000 laser diffraction system equipped with a Hydro 2000S liquid dispersion unit and flow cell. The sample was prepared by adding 15 drops of Tween 80 to crystallised fluticasone propionate within the glass 4 dram vial and mixing into a paste using a spatula, until all of the powder is wetted out and a smooth, uniform paste is achieved. Then the paste is added to the Hydro 2000S containing dispersant (0.1% Tween 80 in deionised water) using a spatula. When the obscuration target is achieved (20%±5%) the sample is left to stir within the Hydro 2000S for 1 minute to allow the particles to wet out, disperse and ensure a stable obscuration is achieved. Measurement is initiated after 1 minute of stirring.
The particle size data expressed as D[v, 0.1], D[v, 0.5] and D[v, 0.9] obtained from examples 2-9 are summarized below in Table 2. D[v, 0.1], D[v, 0.5] and D[v, 0.9] represent the 10th percentile volume diameter; 50th percentile volume diameter; and 90th percentile volume diameter respectively. In general the n^th percentile volume diameter is defined so that n % of the particles have a volume equivalent particle diameter smaller than or equal to the n^th percentile diameter. In the case of D[v, 0.5], it coincides with the median value.

[2] = Particle size distribution of micronised fluticasone propionate by laser diffraction (Sympatec HELOS); format: physicochemical; conditions: after jet milling, JetPharma MC150, feed 15 g/min, mill pressure 3.5 bar, venturi 5.5 bar
Experimental: The particle size distribution was measured on the Sympatec HELOS laser diffraction system (with R1 optical module giving a measuring range of 0.1/0.18-35 μm) together with SUCELL dispersing module. 100 mg of micronised sample is weighed into a 4-dram vial and 15 drops (approximately 0.5 mL) of Tween 80 is added from a 3 ml wide-tipped pipette to the powder. The mixture is then carefully stirred into a paste until all the particles are wetted out and a uniform smooth mixture is achieved. Then the paste is added to the SUCELL containing dispersant (0.025% Tween 80 in deionised water) using a spatula. Once the optical concentration target is achieved (10-15%) then a measurement is taken.
Particles were micronized using a JetPharma MC150 (6 inch spiral jet mill) using the following conditions: • Feed rate: 15 g/min • Mill pressure: 3.5 bar • Venturi Pressure: 5.5 bar • Micronisation scale: 0.5 Kg.

Compound | D[v, 0.1] [1] | D[v, 0.5] [1] | D[v, 0.9] [1] | Ingoing particle size D[v, 0.5] [1] | Post-micronisation particle size D[v, 0.5] [2]
CCC(=O)O[C@]1(C(=O)SCF)[C@H](C)C[C@H]2[C@@H]3C[C@H](F)C4=CC(=O)C=C[C@]4(C)[C@@]3(F)[C@@H](O)C[C@@]21C [Example 2, S-(fluoromethyl)-6α,9-difluoro-11β-17-dihydroxy-16α-methyl-3-oxoandrosta-1,4-diene-17β-carbothioate, 17-propionate] | 2.5 μm | 6.7 μm | 15.7 μm |  | 
CCC(=O)O[C@]1(C(=O)SCF)[C@H](C)C[C@H]2[C@@H]3C[C@H](F)C4=CC(=O)C=C[C@]4(C)[C@@]3(F)[C@@H](O)C[C@@]21C [Example 3, S-(fluoromethyl)-6α,9-difluoro-11β-17-dihydroxy-16α-methyl-3-oxoandrosta-1,4-diene-17β-carbothioate, 17-propionate] | 2.1 μm | 5.1 μm | 11.357 μm |  | 
CCC(=O)O[C@]1(C(=O)SCF)[C@H](C)C[C@H]2[C@@H]3C[C@H](F)C4=CC(=O)C=C[C@]4(C)[C@@]3(F)[C@@H](O)C[C@@]21C [Example 4, S-(fluoromethyl)-6α,9-difluoro-11β-17-dihydroxy-16α-methyl-3-oxoandrosta-1,4-diene-17β-carbothioate, 17-propionate] | 15.4 μm | 55.1 μm | 135.9 μm |  | 
CCC(=O)O[C@]1(C(=O)SCF)[C@H](C)C[C@H]2[C@@H]3C[C@H](F)C4=CC(=O)C=C[C@]4(C)[C@@]3(F)[C@@H](O)C[C@@]21C [Example 5, S-(fluoromethyl)-6α,9-difluoro-11β-17-dihydroxy-16α-methyl-3-oxoandrosta-1,4-diene-17β-carbothioate, 17-propionate] | 2.1 μm | 5.9 μm | 15.2 μm |  | 
CCC(=O)O[C@]1(C(=O)SCF)[C@H](C)C[C@H]2[C@@H]3C[C@H](F)C4=CC(=O)C=C[C@]4(C)[C@@]3(F)[C@@H](O)C[C@@]21C [Example 6, S-(fluoromethyl)-6α,9-difluoro-11β-17-dihydroxy-16α-methyl-3-oxoandrosta-1,4-diene-17β-carbothioate, 17-propionate] | 2.0 μm | 5.3 μm | 12.4 μm |  | 
CCC(=O)O[C@]1(C(=O)SCF)[C@H](C)C[C@H]2[C@@H]3C[C@H](F)C4=CC(=O)C=C[C@]4(C)[C@@]3(F)[C@@H](O)C[C@@]21C [Example 7, S-(fluoromethyl)-6α,9-difluoro-11β-17-dihydroxy-16α-25 methyl-3-oxoandrosta-1,4-diene-17β-carbothioate, 17-propionate] | 3.4 μm | 11.4 μm | 32.1 μm |  | 
CCC(=O)O[C@]1(C(=O)SCF)[C@H](C)C[C@H]2[C@@H]3C[C@H](F)C4=CC(=O)C=C[C@]4(C)[C@@]3(F)[C@@H](O)C[C@@]21C [Example 8, S-(fluoromethyl)-6α,9-difluoro-11β-17-dihydroxy-16α-methyl-3-oxoandrosta-1,4-diene-17β-carbothioate, 17-propionate] | 1.3 μm | 2.8 μm | 5.6 μm | 2.8 μm | 2.3 μm
CCC(=O)O[C@]1(C(=O)SCF)[C@H](C)C[C@H]2[C@@H]3C[C@H](F)C4=CC(=O)C=C[C@]4(C)[C@@]3(F)[C@@H](O)C[C@@]21C [Example 9, S-(fluoromethyl)-6α,9-difluoro-11β-17-dihydroxy-16α-methyl-3-oxoandrosta-1,4-diene-17β-carbothioate, 17-propionate] | 6.2 μm | 22.5 μm | 53.4 μm | 22.5 μm | 4.0 μm
